Data from the supplement of paper PMC10307832.

How the values were obtained:
Experiment in all cases: relative viability (nuclei count vs DMSO), 5 days (fraction); higher = more cells survive
[1] = system: ABC-1
In short: (§1)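 Nuclei were stained with Hoechst during a one-step fixation (final 0.05% Triton X-100, 1% formaldehyde, 1 ug/ml Hoechst) carried out 5 days after dosing, then counted on 4× images. The cells, lung cancer lines in 1536-well plates, had been dosed by pin tool the day after seeding with one drug alone or a fixed anchor-drug dose plus five library-drug doses (not always all listed) in √10 steps. Relative viability is the nuclei count in treated wells divided by that in vehicle wells, and each value is the median of duplicate plates.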

[2] = system: SW 900
In short: as §1

[3] = system: NCI-H1755
In short: as §1

[4] = system: NCI-H2170
In short: as §1

[5] = system: NCI-H1437
In short: as §1

[6] = system: NCI-H1395
In short: as §1

[7] = system: EMC-BAC-2
In short: as §1

[8] = system: SK-LU-1
In short: as §1

[9] = system: PC-14
In short: as §1

[10] = system: LCLC-97TM1
In short: as §1

[11] = system: LOU-NH91
In short: as §1

[12] = system: NCI-H1650
In short: as §1

[13] = system: NCI-H2009
In short: as §1

[14] = system: EPLC-272H
In short: as §1

[15] = system: NCI-H522
In short: as §1

[16] = system: HCC-78
In short: as §1

[17] = system: HCC-827
In short: as §1

[18] = system: LK-2
In short: as §1

[19] = system: CAL-12T
In short: as §1

[20] = system: NCI-H2023
In short: as §1

[21] = system: UMC-11
In short: as §1

[22] = system: NCI-H596
In short: as §1

[23] = system: NCI-H727
In short: as §1

[24] = system: BEN
In short: as §1

[25] = system: EKVX
In short: as §1

## Nc1cccc2c1CN(C1CCC(=O)NC1=O)C2=O (stereo unspecified) [Lenalidomide] + Cc1nc(Nc2ncc(C(=O)Nc3c(C)cccc3Cl)s2)cc(N2CCN(CCO)CC2)n1 [Dasatinib] (partner 0.075 µM)
[1]; first compound 0.253 µM
  relative viability: 0.591
[1]; first compound 0.8 µM
  relative viability: 0.482
[1]; first compound 2.53 µM
  relative viability: 0.602
[1]; first compound 8 µM
  relative viability: 0.55
[2]; first compound 0.253 µM
  relative viability: 0.498
[2]; first compound 2.53 µM
  relative viability: 0.606
[2]; first compound 8 µM
  relative viability: 0.828
[3]; first compound 0.253 µM
  relative viability: 0.404
[3]; first compound 0.8 µM
  relative viability: 0.216
[3]; first compound 2.53 µM
  relative viability: 0.428
[3]; first compound 8 µM
  relative viability: 0.33
[4]; first compound 0.253 µM
  relative viability: 0.547
[4]; first compound 0.8 µM
  relative viability: 0.47
[4]; first compound 2.53 µM
  relative viability: 0.571
[4]; first compound 8 µM
  relative viability: 0.454
[5]; first compound 0.253 µM
  relative viability: 0.536
[5]; first compound 0.8 µM
  relative viability: 0.45
[5]; first compound 2.53 µM
  relative viability: 0.485
[5]; first compound 8 µM
  relative viability: 0.442
[6]; first compound 0.253 µM
  relative viability: 0.428
[6]; first compound 0.8 µM
  relative viability: 0.383
[6]; first compound 2.53 µM
  relative viability: 0.392
[6]; first compound 8 µM
  relative viability: 0.367
[7]; first compound 0.253 µM
  relative viability: 0.319
[7]; first compound 0.8 µM
  relative viability: 0.28
[7]; first compound 2.53 µM
  relative viability: 0.33
[7]; first compound 8 µM
  relative viability: 0.256
[8]; first compound 0.253 µM
  relative viability: 0.175
[8]; first compound 0.8 µM
  relative viability: 0.206
[8]; first compound 2.53 µM
  relative viability: 0.178
[8]; first compound 8 µM
  relative viability: 0.143
[9]; first compound 0.253 µM
  relative viability: 0.236
[9]; first compound 0.8 µM
  relative viability: 0.28
[9]; first compound 2.53 µM
  relative viability: 0.281
[9]; first compound 8 µM
  relative viability: 0.304
[10]; first compound 0.253 µM
  relative viability: 0.634
[10]; first compound 0.8 µM
  relative viability: 0.939
[10]; first compound 2.53 µM
  relative viability: 0.909
[10]; first compound 8 µM
  relative viability: 0.886
[11]; first compound 0.253 µM
  relative viability: 0.558
[11]; first compound 0.8 µM
  relative viability: 0.435
[11]; first compound 2.53 µM
  relative viability: 0.555
[11]; first compound 8 µM
  relative viability: 0.456
[12]; first compound 0.8 µM
  relative viability: 0.241
[12]; first compound 2.53 µM
  relative viability: 0.316
[12]; first compound 8 µM
  relative viability: 0.303
[13]; first compound 0.253 µM
  relative viability: 0.326
[13]; first compound 0.8 µM
  relative viability: 0.299
[13]; first compound 2.53 µM
  relative viability: 0.351
[13]; first compound 8 µM
  relative viability: 0.284
[14]; first compound 0.253 µM
  relative viability: 0.379
[14]; first compound 0.8 µM
  relative viability: 0.358
[14]; first compound 2.53 µM
  relative viability: 0.321
[14]; first compound 8 µM
  relative viability: 0.235
[15]; first compound 0.253 µM
  relative viability: 1
[15]; first compound 2.53 µM
  relative viability: 0.749
[15]; first compound 8 µM
  relative viability: 0.678
[16]; first compound 0.253 µM
  relative viability: 0.52
[16]; first compound 0.8 µM
  relative viability: 0.371
[16]; first compound 2.53 µM
  relative viability: 0.465
[16]; first compound 8 µM
  relative viability: 0.308
[17]; first compound 0.253 µM
  relative viability: 0.291
[17]; first compound 0.8 µM
  relative viability: 0.416
[17]; first compound 2.53 µM
  relative viability: 0.341
[17]; first compound 8 µM
  relative viability: 0.312
[18]; first compound 0.253 µM
  relative viability: 0.401
[18]; first compound 0.8 µM
  relative viability: 0.332
[18]; first compound 2.53 µM
  relative viability: 0.249
[18]; first compound 8 µM
  relative viability: 0.172
[19]; first compound 0.253 µM
  relative viability: 0.262
[19]; first compound 0.8 µM
  relative viability: 0.345
[19]; first compound 2.53 µM
  relative viability: 0.397
[19]; first compound 8 µM
  relative viability: 0.368
[20]; first compound 0.253 µM
  relative viability: 0.612
[20]; first compound 0.8 µM
  relative viability: 0.515
[20]; first compound 2.53 µM
  relative viability: 0.608
[20]; first compound 8 µM
  relative viability: 0.416
[21]; first compound 0.253 µM
  relative viability: 0.452
[21]; first compound 0.8 µM
  relative viability: 0.456
[21]; first compound 2.53 µM
  relative viability: 0.542
[21]; first compound 8 µM
  relative viability: 0.43
[22]; first compound 0.253 µM
  relative viability: 0.644
[22]; first compound 2.53 µM
  relative viability: 0.655
[22]; first compound 8 µM
  relative viability: 0.505
[23]; first compound 0.253 µM
  relative viability: 0.357
[23]; first compound 0.8 µM
  relative viability: 0.326
[23]; first compound 2.53 µM
  relative viability: 0.335
[23]; first compound 8 µM
  relative viability: 0.384
[24]; first compound 0.253 µM
  relative viability: 0.385
[24]; first compound 0.8 µM
  relative viability: 0.258
[24]; first compound 2.53 µM
  relative viability: 0.293
[24]; first compound 8 µM
  relative viability: 0.241
[25]; first compound 0.253 µM
  relative viability: 0.613
[25]; first compound 0.8 µM
  relative viability: 0.495
[25]; first compound 2.53 µM
  relative viability: 0.575
[25]; first compound 8 µM
  relative viability: 0.499
